Here are results for 14 molecules from ChEMBL document CHEMBL2010671, “Structure aided design of chimeric antibiotics” (Bioorg Med Chem Lett, 2012).

For one data set, the system named is Staphylococcus aureus. The data set can be described thus: Antimicrobial activity against ciprofloxacin-, SXT-sensitive Staphylococcus aureus ATCC 25923. It is filed as functional.
For another data set, the system named is Klebsiella pneumoniae. The data set is described as follows: Antimicrobial activity against ciprofloxacin-sensitive, SXT-resistant Klebsiella pneumoniae ATCC 700603. It is filed as functional.
The subject of data set [1] is Staphylococcus epidermidis. The data set is described as follows: Antimicrobial activity against ciprofloxacin-sensitive, SXT-resistant Staphylococcus epidermidis NRS60. It is filed as functional.
Data set [2] has as its system Escherichia coli. The data set is described as follows: Antimicrobial activity against ciprofloxacin-, SXT-resistant Escherichia coli. The data set is classed as functional.
Data set [3] relates to Escherichia coli. The data set can be described thus: Antimicrobial activity against ciprofloxacin-, SXT-sensitive Escherichia coli ATCC 25922. It is filed as functional.
The subject of a further data set is Pseudomonas aeruginosa. The data set can be described thus: Antimicrobial activity against ciprofloxacin-sensitive, SXT-resistant Pseudomonas aeruginosa ATCC 10145. It is filed as functional.
Data set [4] can be described thus: Inhibition of DNA supercoiling activity of Escherichia coli DNA gyrase after 1 hr by agarose gel electrophoresis.
A short description of data set [5]: Inhibition of DNA decatenation activity of Escherichia coli DNA topoisomerase 4 after 1 hr by agarose gel electrophoresis.
In the next data set the target is T1, Dihydrofolate reductase (Homo sapiens, UniProt P00374).
T1 sequence (P00374 whole entry): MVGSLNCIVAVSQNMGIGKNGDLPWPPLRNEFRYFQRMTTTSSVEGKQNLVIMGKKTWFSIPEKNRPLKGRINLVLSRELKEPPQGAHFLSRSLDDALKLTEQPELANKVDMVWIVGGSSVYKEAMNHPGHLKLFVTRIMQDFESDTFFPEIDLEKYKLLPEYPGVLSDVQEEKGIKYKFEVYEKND
The data set is described as follows: Inhibition of DHFR using dihydrofolate as substrate following 3 mins substrate preincubation measured after 3 mins by spectrophotometric analysis.

The next data set has as its system HEK293. The data set can be described thus: Cytotoxicity against human HEK293 cells at 100 uM after 48 hrs by MTT assay. The data set is classed as cell-based. Particulars: hek293, 48 h. In general terms: Formazan colour is commonly taken as a measure of viable cells.
The nature of data set [6]: Cytotoxicity against human HEK293 cells after 48 hrs by MTT assay. The data set is classed as cell-based.
Data set [7] is described as follows: Cytotoxicity against human HepG2 cells after 48 hrs by MTT assay. It is filed as cell-based.
The next data set concerns HepG2. The data set can be described thus: Cytotoxicity against human HepG2 cells at 100 uM after 48 hrs by MTT assay. Particulars: hepg2, 48 h. The data set is classed as cell-based.

Converted amounts (≈) assume the structure as drawn. A value given as a limit tells only on which side of the number the result lay.

One may read the MIC as the smallest concentration in the dilution series that meets the test's criterion for growth inhibition. Read a low MIC as greater potency. For the molecule `COc1cc(Cc2cnc(Nc3nc4c(cc3F)c(=O)c(C(=O)O)cn4C3CC3)nc2N)cc2c1OCCN2`, the MIC (in the data set with Staphylococcus aureus; with Klebsiella pneumoniae; in data set [1]; in the data set with Escherichia coli [2]; with Escherichia coli [3]; against Pseudomonas aeruginosa) was more than 64 µg/mL in each case.

Broadly, the IC50 is the concentration at which inhibition is half-maximal. With `[N-]=[N+]=Nc1nc2c(cc1F)c(=O)c(C(=O)O)cn2C1CC1`, the MIC was 16 µg/mL (≈ 55.3 µM) against Staphylococcus aureus; 64 µg/mL (≈ 221 µM) with Klebsiella pneumoniae; 4 µg/mL (≈ 13.8 µM) in data set [1]; more than 64 µg/mL with Escherichia coli [2]; 2 µg/mL (≈ 6.92 µM) with Escherichia coli [3]; more than 64 µg/mL in the data set with Pseudomonas aeruginosa. For the same molecule, the IC50 in data set [4] (read-out: IC50) was 17 µM; in data set [5] (read-out: IC50), more than 250 µM.

For the molecule `C#CCN1CCN(c2nc3c(cc2F)c(=O)c(C(=O)O)cn3C2CC2)CC1`, the MIC against Staphylococcus aureus is 0.25 µg/mL (≈ 0.675 µM); in the data set on Klebsiella pneumoniae, 8 µg/mL (≈ 21.6 µM); in data set [1], 0.5 µg/mL (≈ 1.35 µM); with Escherichia coli [2], more than 64 µg/mL; in the data set on Escherichia coli [3] it was 0.25 µg/mL (≈ 0.675 µM); with Pseudomonas aeruginosa, 8 µg/mL (≈ 21.6 µM). Also, the IC50 was found to be 10 µM in [4] (read-out: IC50) and 4.4 µM in [5] (read-out: IC50).

Consider `COc1cc(Cc2cnc(N)nc2N)cc2c1OCCN2`, for which the MIC with Staphylococcus aureus is 8 µg/mL (≈ 27.8 µM); with Klebsiella pneumoniae, 32 µg/mL (≈ 111 µM); in data set [1], more than 64 µg/mL; in the data set on Escherichia coli [2] it was more than 64 µg/mL; with Escherichia coli [3], 8 µg/mL (≈ 27.8 µM); in the data set with Pseudomonas aeruginosa, more than 64 µg/mL. The IC50 in data set [4] (read-out: IC50) and in data set [5] (read-out: IC50) was more than 250 µM each time.

For the molecule `Nc1ncc(Cn2cc(CN3CCN(c4nc5c(cc4F)c(=O)c(C(=O)O)cn5C4CC4)CC3)nn2)c(N)n1`, the MIC in the data set with Staphylococcus aureus is 64 µg/mL (≈ 120 µM); against Klebsiella pneumoniae it was more than 64 µg/mL; in data set [1], 8 µg/mL (≈ 14.9 µM); in the data set with Escherichia coli [2], more than 64 µg/mL; against Escherichia coli [3] it was 4 µg/mL (≈ 7.47 µM); in the data set with Pseudomonas aeruginosa it was 64 µg/mL (≈ 120 µM). In addition, the IC50 in data set [4] (read-out: IC50) is 160 µM; in [5] (read-out: IC50), 10.7 µM.

Take `Nc1ncc(COCc2cn(-c3nc4c(cc3F)c(=O)c(C(=O)O)cn4C3CC3)nn2)c(N)n1`: the minimum inhibitory concentration (MIC) was 4 µg/mL (≈ 8.56 µM) in the data set with Staphylococcus aureus; 16 µg/mL (≈ 34.2 µM) with Klebsiella pneumoniae; 4 µg/mL (≈ 8.56 µM) in data set [1]; more than 64 µg/mL in the data set on Escherichia coli [2]; 0.5 µg/mL (≈ 1.07 µM) against Escherichia coli [3]; more than 64 µg/mL in the data set with Pseudomonas aeruginosa. In addition, the IC50 in data set [4] (read-out: IC50) was 48 µM; in [5] (read-out: IC50) it was 4.5 µM; against Dihydrofolate reductase, more than 250 µM.

In the case of `C#CCNc1nc2c(cc1F)c(=O)c(C(=O)O)cn2C1CC1`, the MIC is 32 µg/mL (≈ 106 µM) in the data set with Staphylococcus aureus; more than 64 µg/mL in the data set with Klebsiella pneumoniae; 16 µg/mL (≈ 53.1 µM) in [1]; more than 64 µg/mL in the data set with Escherichia coli [2]; 16 µg/mL (≈ 53.1 µM) in the data set on Escherichia coli [3]; more than 64 µg/mL in the data set on Pseudomonas aeruginosa. Moreover, the IC50 is 166 µM in data set [4] (read-out: IC50) and more than 250 µM in [5] (read-out: IC50).

COLISTIN: the MIC in the data set on Staphylococcus aureus was 1 µg/mL; in the data set on Klebsiella pneumoniae, less than 0.03 µg/mL; in data set [1], 2 µg/mL; with Escherichia coli [2], more than 64 µg/mL; against Escherichia coli [3], 0.06 µg/mL; against Pseudomonas aeruginosa it was not above 0.03 µg/mL.

`COc1cc(Cc2cnc(N)nc2N)cc(OC)c1OC` [TRIMETHOPRIM]: the MIC was 1 µg/mL (≈ 3.44 µM) against Staphylococcus aureus; 2 µg/mL (≈ 6.89 µM) against Klebsiella pneumoniae; more than 64 µg/mL in data set [1]; more than 64 µg/mL against Escherichia coli [2]; 0.125 µg/mL (≈ 0.431 µM) with Escherichia coli [3]; more than 64 µg/mL with Pseudomonas aeruginosa.

Broadly, the CC50 is the concentration at which the toxic effect on the cells reaches its halfway point. In the case of `C#CCNc1nc2c(cc1F)c(=O)c(C(=O)OCC)cn2C1CC1`, the Activity result in the data set with HEK293 and in the data set with HepG2 was “Toxic” in each case. Further, the CC50 at 48 h in data set [6] and in data set [7] was 80 µM throughout.

`CCOC(=O)c1cn(C2CC2)c2nc(NCc3cn(Cc4cnc(N)nc4N)nn3)c(F)cc2c1=O`: the MIC (in the data set with Staphylococcus aureus; against Klebsiella pneumoniae; in data set [1]; against Escherichia coli [2]; in the data set on Escherichia coli [3]; against Pseudomonas aeruginosa) was more than 64 µg/mL in each case. Besides, the IC50 entry in [4] and in data set [5] was “Not Active” throughout.

Regarding `Nc1ncc(CNc2nc3c(cc2F)c(=O)c(C(=O)O)cn3C2CC2)c(N)n1`, the MIC against Staphylococcus aureus and in the data set with Escherichia coli [3] was more than 64 µg/mL each time.

For the molecule `O=C(O)c1cn(C2CC2)c2cc(N3CCNCC3)c(F)cc2c1=O` [CIPROFLOXACIN], the MIC was 0.5 µg/mL (≈ 1.51 µM) against Staphylococcus aureus; 0.125 µg/mL (≈ 0.377 µM) with Klebsiella pneumoniae; 0.06 µg/mL (≈ 0.181 µM) in [1]; more than 64 µg/mL in the data set with Escherichia coli [2]; not above 0.03 µg/mL against Escherichia coli [3]; not above 0.03 µg/mL with Pseudomonas aeruginosa. The IC50 stood at 0.97 µM in [4] (read-out: IC50) and 0.392 µM in data set [5] (read-out: IC50).

Consider `COc1cc(Cc2cnc(N)nc2Nc2nc3c(cc2F)c(=O)c(C(=O)O)cn3C2CC2)cc2c1OCCN2`, for which the MIC (in the data set on Staphylococcus aureus; in the data set with Klebsiella pneumoniae; in data set [1]; against Escherichia coli [2]; against Escherichia coli [3]; in the data set with Pseudomonas aeruginosa) was more than 64 µg/mL in each case.
